Test systems include MCF7 breast; A549 NSCLC; A498 renal; NCI/ADR-RES ovarian; U251 CNS; SNB-19 CNS; CAKI-1 renal; HT29 colon; OVCAR-3 ovarian; HCC-2998 colon.
Assay in all cases: DTP human tumour cell line panel, 48 h

“And” between values parts separate entries of the source, which are not always exact repeats. Equal values may be shown once.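 Step 1: Grow cells in 96-well plates. Step 2: Expose to compound for 48 hours at 5 concentrations. Step 3: Interpolate endpoints linearly; if unreached, use highest concentration. GI50 is the concentration that inhibits growth by half. TGI: total growth inhibition.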 Bounds are passed on as bounds.

Turning to `S=C(S)NCCCn1ccnc1`, the TGI with MCF7 breast, in the test with A549 NSCLC, in the test with A498 renal, in the test with NCI/ADR-RES ovarian, with U251 CNS and in the test with SNB-19 CNS was over 100 µM in each case. In addition, the TGI in the test with CAKI-1 renal, with HT29 colon and with OVCAR-3 ovarian was over 100 µM throughout.
Turning to `CN(C)c1ccc2c(SCC(=O)OCC(=O)[C@@]3(O)CC[C@H]4[C@@H]5CCC6=CC(=O)C=C[C@]6(C)[C@H]5C(=O)C[C@@]43C)c3ccc(N(C)C)cc3nc2c1`, the TGI (as a rule, the concentration at which net growth stops) in the test on MCF7 breast is over 100 µM; in the test with A549 NSCLC it was over 100 µM; with A498 renal, over 96.2 µM; in the test with U251 CNS, over 100 µM; in the test with HCC-2998 colon, over 100 µM; in the test with SNB-19 CNS, over 94.5 µM. In addition, the TGI in the test on CAKI-1 renal is 60.8 µM; in the test on HT29 colon, 25.4 µM; in the test on OVCAR-3 ovarian it was over 100 µM.
As for `S=C1SC2(CCCCCC2)NC2=C1CCCCC2`, the TGI with MCF7 breast was 65 µM; in the test with A549 NSCLC it was over 100 µM; in the test on NCI/ADR-RES ovarian, over 100 µM; in the test on U251 CNS it was over 100 µM; with HCC-2998 colon, over 100 µM; with SNB-19 CNS it was 87.5 µM. Also, the TGI with CAKI-1 renal, in the test with HT29 colon and in the test with OVCAR-3 ovarian was over 100 µM throughout.
Consider `CCN(CC)CCNc1ccc(CO)c2sc3ccccc3c(=O)c12`, for which the GI50 (as a rule, the concentration that inhibits growth by half) in the test with MCF7 breast is 2.21 µM and 4.35 µM and 5.57 µM; with A549 NSCLC, 3.2 µM; in the test on A498 renal, 1.26 µM and 6.98 µM and 3.61 µM; in the test on NCI/ADR-RES ovarian, 2.99 µM and 4.29 µM and 7.25 µM; in the test with U251 CNS it was 3.97 µM and 12.6 µM; in the test on SNB-19 CNS it was 3.54 µM and 13.3 µM and 14.1 µM. Moreover, the GI50 in the test on CAKI-1 renal was 3.03 µM. Besides, the TGI in the test with MCF7 breast was 7.55 µM and 17.3 µM and 19.2 µM; in the test on A549 NSCLC it was 13.6 µM and 21.4 µM and 18.2 µM; with NCI/ADR-RES ovarian, 17 µM and 17.3 µM and 21 µM; with U251 CNS, 23.7 µM [middle of 4 runs]; in the test on HCC-2998 colon, 25.2 µM [middle of 4 runs]; with SNB-19 CNS, 29.1 µM [middle of 4 runs]. In addition, the TGI in the test with CAKI-1 renal was 26.4 µM [middle of 4 runs]; in the test with OVCAR-3 ovarian, 20 µM [middle of 4 runs].
As to `CN1CCN(c2ccc3nc(-c4ccc5nc(-c6ccc(C(F)(F)F)cc6)[nH]c5c4)[nH]c3c2)CC1`, the GI50 with MCF7 breast was 0.578 µM; in the test on A549 NSCLC it was 1.94 µM; in the test on A498 renal it was 10.7 µM; in the test with NCI/ADR-RES ovarian, 25.7 µM; with U251 CNS, 1.62 µM; in the test on HCC-2998 colon, 1.98 µM. Moreover, the GI50 in the test with CAKI-1 renal is 2.97 µM; in the test with HT29 colon, 1.41 µM; in the test on OVCAR-3 ovarian, 1.58 µM. In addition, the TGI is 2.19 µM in the test with MCF7 breast; 3.91 µM in the test on A549 NSCLC; 29.6 µM with A498 renal; over 100 µM in the test with NCI/ADR-RES ovarian; 3.04 µM with U251 CNS; 3.57 µM in the test with HCC-2998 colon. Besides, the TGI in the test with CAKI-1 renal is 15.7 µM; with HT29 colon, 3.13 µM; with OVCAR-3 ovarian it was 3.1 µM.
Turning to `CC(C)(C)OC(=O)N(CCCn1c2c(c3ccccc3c1=O)C(=O)c1ccccc1-2)CCN(CCCn1c2c(c3ccccc3c1=O)C(=O)c1ccccc1-2)C(=O)OC(C)(C)C`, the GI50 in the test with MCF7 breast was 21.3 µM; in the test with A549 NSCLC, 25.4 µM; in the test with A498 renal it was over 50 µM; in the test on NCI/ADR-RES ovarian, over 50 µM; in the test with U251 CNS, 15.5 µM; in the test on SNB-19 CNS, 37.8 µM. Moreover, the figures for the GI50 with CAKI-1 renal, in the test on HT29 colon and in the test on OVCAR-3 ovarian were 37.9 µM, over 50 µM and 13.2 µM, respectively. Moreover, the TGI in the test on MCF7 breast, with A549 NSCLC, in the test on A498 renal, in the test on NCI/ADR-RES ovarian, with U251 CNS and in the test on SNB-19 CNS was over 50 µM each time. Further, the TGI in the test with CAKI-1 renal, in the test on HT29 colon and in the test on OVCAR-3 ovarian was over 50 µM each time.
For `C[C@]1(O)CC(=O)[C@]2(O)C3=C(C=C[C@]2(O)C1)C(=O)c1c(O)cccc1C3=O`, the GI50 in the test with A549 NSCLC is 16.3 µM; in the test on A498 renal it was 13 µM; in the test with NCI/ADR-RES ovarian, 5.84 µM; in the test on U251 CNS, 6.02 µM; in the test on HCC-2998 colon, 7.59 µM; in the test with SNB-19 CNS, 13.6 µM. Further, the GI50 with CAKI-1 renal was 1.5 µM; in the test with HT29 colon, 3.26 µM; in the test with OVCAR-3 ovarian, 1.23 µM. The TGI in the test on A549 NSCLC stood at 38.6 µM; with A498 renal it was 25.9 µM; in the test on NCI/ADR-RES ovarian, 40.3 µM; in the test on U251 CNS, 21.5 µM; in the test on HCC-2998 colon, 20.7 µM; in the test with SNB-19 CNS it was 26.5 µM. Further, the TGI in the test on CAKI-1 renal is 2.85 µM; in the test with HT29 colon, over 100 µM; in the test with OVCAR-3 ovarian, 2.62 µM.
On to `CC(=O)OC1CC(C)c2c1ncnc2N1CCN(C(=O)OC(C)(C)C)CC1` (configuration not stated), for which the GI50 is 39.1 µM in the test on MCF7 breast; 44.2 µM with A549 NSCLC; 37.8 µM in the test on A498 renal; 67.6 µM in the test on NCI/ADR-RES ovarian; 69.6 µM in the test on HCC-2998 colon; 78.5 µM with SNB-19 CNS. The GI50 is 63.8 µM in the test with CAKI-1 renal, 37.1 µM in the test on HT29 colon and 32.3 µM in the test on OVCAR-3 ovarian. Further, the TGI in the test on MCF7 breast, in the test with A549 NSCLC, with A498 renal, in the test with NCI/ADR-RES ovarian, in the test on HCC-2998 colon and with SNB-19 CNS was over 100 µM in each case. For the same compound, the TGI in the test on CAKI-1 renal was over 100 µM; in the test on HT29 colon, 88.5 µM; in the test on OVCAR-3 ovarian, 82.7 µM.
In the case of `CC(=O)c1ccc(NCn2nc(-c3ccccc3O)oc2=S)cc1`, the GI50 with MCF7 breast was over 100 µM; in the test with A549 NSCLC, 37.8 µM; with NCI/ADR-RES ovarian it was over 100 µM; in the test with U251 CNS, 50.8 µM; in the test with HCC-2998 colon it was 27.8 µM; with SNB-19 CNS, over 100 µM. Besides, the figures for the GI50 in the test on CAKI-1 renal, with HT29 colon and with OVCAR-3 ovarian were over 100 µM, 47 µM and over 100 µM, respectively. Besides, the TGI was over 100 µM in the test with MCF7 breast; over 100 µM in the test with A549 NSCLC; over 100 µM in the test on NCI/ADR-RES ovarian; over 100 µM in the test on U251 CNS; 66.2 µM in the test with HCC-2998 colon; over 100 µM in the test on SNB-19 CNS. Moreover, the TGI in the test with CAKI-1 renal, in the test with HT29 colon and in the test on OVCAR-3 ovarian was over 100 µM in each case.

The values are drawn from PubChem BioAssay (NCI).
